Experimental data published in the OligoGym collection.
Values joined by “and” are separate entries in the source; they are usually repeats but may differ in a detail not shown here. Identical values can stand only once. After the bases stand the sugars from the 5' end (letter, count) and the backbone: PS all phosphorothioate, else s phosphorothioate and o phosphodiester by linkage. Methylation of C is not given here. e = 2'-O-(2-methoxyethyl) (MOE); k = constrained ethyl (cEt); d = 2'-deoxy (DNA)

Molecular target: SOD1
Conditions: ASO

Sequence: TTAATGTTTATCAGGAT (sugars e2 k2 d9 k2 e2, PS)
- target mRNA inhibition (HepG2, 0.1875 µM): 43%
- target mRNA inhibition (HepG2, 0.75 µM): 78%
- target mRNA inhibition (HepG2, 3 µM): 93%
- target mRNA inhibition (HepG2, 4 µM): 92%
- target mRNA inhibition (HepG2, 12 µM): 98%

Sequence: GAATCTTCAATAGACACATC (sugars e5 d10 e5, PS)
- target mRNA inhibition (HepG2, 5 µM): 22% and 11%

Sequence: GGTTTTTATTCACAGGC (sugars e2 k2 d8 k2 e3, PS)
- target mRNA inhibition (HepG2, 5 µM): 38%

Sequence: AATCTTCCAAGTGATCATAA (sugars e5 d10 e5, PS)
- target mRNA inhibition (HepG2, 5 µM): 4%

Sequence: GTGCCATACAGGGTTTT (sugars e3 k2 d7 k2 e3, PS)
- target mRNA inhibition (HepG2, 3 µM): 7%

Sequence: CGCCGAGGTCCTGGTTCCGA (sugars e5 d10 e5, PS)
- target mRNA inhibition (HepG2, 4 µM): 24%

Sequence: CAGGATACATTTCTACAGCT (sugars e5 d10 e5, linkages s1 o4 s10 o2 s2)
- target mRNA inhibition (A431, 0.062 µM): 18%
- target mRNA inhibition (A431, 0.185 µM): 28%
- target mRNA inhibition (A431, 0.556 µM): 45%
- target mRNA inhibition (A431, 1.667 µM): 70%
- target mRNA inhibition (A431, 5 µM): 69%
- target mRNA inhibition (A431, 15 µM): 81%
- target mRNA inhibition (SH-SY5Y, 0.062 µM): 0%
- target mRNA inhibition (SH-SY5Y, 0.185 µM): 17%
- target mRNA inhibition (SH-SY5Y, 0.556 µM): 49%
- target mRNA inhibition (SH-SY5Y, 1.667 µM): 62%
- target mRNA inhibition (SH-SY5Y, 5 µM): 83%
- target mRNA inhibition (SH-SY5Y, 15 µM): 91%

Sequence: AGCTAGCAGGATAACAG (sugars e2 k2 d8 k2 e3, PS)
- target mRNA inhibition (HepG2, 4 µM): 57%

Sequence: TTCTCACTACAGGTACT (sugars e2 k2 d9 k2 e2, PS)
- target mRNA inhibition (HepG2, 5 µM): 37%

Sequence: GTTTAATGTTTATCAG (sugars ekddddddddekekee, linkages s1 o1 s8 o3 s2)
- target mRNA inhibition (A431, 0.12 µM): 2%
- target mRNA inhibition (A431, 0.6 µM): 19%
- target mRNA inhibition (A431, 3 µM): 33%
- target mRNA inhibition (A431, 15 µM): 62%
- target mRNA inhibition (HepG2, 0.222 µM): 44%
- target mRNA inhibition (HepG2, 0.667 µM): 63%
- target mRNA inhibition (HepG2, 2 µM): 82%
- target mRNA inhibition (HepG2, 6 µM): 94%

Sequence: TGCCCAAGTCATCTGCT (sugars e3 k2 d7 k2 e3, PS)
- target mRNA inhibition (HepG2, 3 µM): 90%

Sequence: GTGTTTAATGTTTATCA (sugars e2 k2 d9 k2 e2, linkages s1 o3 s9 o1 s2)
- target mRNA inhibition (A431, 0.12 µM): 22%
- target mRNA inhibition (A431, 0.6 µM): 57%
- target mRNA inhibition (A431, 3 µM): 73%
- target mRNA inhibition (A431, 15 µM): 84%
- target mRNA inhibition (HepG2, 0.222 µM): 58%
- target mRNA inhibition (HepG2, 0.667 µM): 68%
- target mRNA inhibition (HepG2, 2 µM): 96%
- target mRNA inhibition (HepG2, 6 µM): 83%

Sequence: CAGACTACATCCAAGGG (sugars e2 k2 d8 k2 e3, PS)
- target mRNA inhibition (HepG2, 0.1875 µM): 25%
- target mRNA inhibition (HepG2, 0.75 µM): 60%
- target mRNA inhibition (HepG2, 3 µM): 84%
- target mRNA inhibition (HepG2, 4 µM): 81%
- target mRNA inhibition (HepG2, 12 µM): 91%

Sequence: GATACATTTCTACAGCTA (sugars e5 d8 e5, linkages s1 o3 s9 o2 s2)
- target mRNA inhibition (A431, 0.12 µM): 7%
- target mRNA inhibition (A431, 0.6 µM): 15%
- target mRNA inhibition (A431, 3 µM): 39%
- target mRNA inhibition (A431, 15 µM): 52%
- target mRNA inhibition (HepG2, 0.222 µM): 28%
- target mRNA inhibition (HepG2, 0.667 µM): 59%
- target mRNA inhibition (HepG2, 2 µM): 73%
- target mRNA inhibition (HepG2, 6 µM): 85%

Sequence: CCGTCTCCGCGACTACTTTA (sugars e5 d10 e5, PS)
- target mRNA inhibition (HepG2, 4 µM): 20%

Sequence: CAGTGTTTAATGTTTAT (sugars e2 k2 d9 k2 e2, PS)
- target mRNA inhibition (HepG2, 0.1875 µM): 45%
- target mRNA inhibition (HepG2, 0.75 µM): 73%
- target mRNA inhibition (HepG2, 3 µM): 84%
- target mRNA inhibition (HepG2, 4 µM): 84%
- target mRNA inhibition (HepG2, 5 µM): 85%
- target mRNA inhibition (HepG2, 12 µM): 82% and 87%

Sequence: TTTATTCACAGGCTTGA (sugars e2 k2 d8 k2 e3, PS)
- target mRNA inhibition (HepG2, 5 µM): 44%

Sequence: GATACATTTCTACAGCT (sugars e2 k2 d8 k2 e3, PS)
- target mRNA inhibition (HepG2, 4 µM): 64%

Sequence: CATTGAAACAGACATTT (sugars e3 k2 d7 k2 e3, PS)
- target mRNA inhibition (HepG2, 3 µM): 11%

Sequence: TACCCATCTGTGATTTA (sugars e2 k2 d8 k2 e3, PS)
- target mRNA inhibition (HepG2, 5 µM): 29%

Sequence: CCACACCTTCACTGGTC (sugars e3 k2 d7 k2 e3, PS)
- target mRNA inhibition (HepG2, 3 µM): 36%

Sequence: GGCCTCAGACTACATCC (sugars e3 k2 d7 k2 e3, PS)
- target mRNA inhibition (HepG2, 3 µM): 24%

Sequence: ACTGCAACGGAAACCCCAGA (sugars e5 d10 e5, PS)
- target mRNA inhibition (HepG2, 4 µM): 43%

Sequence: CTTTTAAGATTACAGTG (sugars e2 k2 d8 k2 e3, PS)
- target mRNA inhibition (HepG2, 5 µM): 62%

Sequence: CTACGACGCAAACCAGCACC (sugars e5 d10 e5, PS)
- target mRNA inhibition (HepG2, 4 µM): 19%

Sequence: CAACATGCCTCTCTTCA (sugars e3 k2 d7 k2 e3, PS)
- target mRNA inhibition (HepG2, 3 µM): 3%

Sequence: GACAAGTTTAATACCCA (sugars e2 k2 d8 k2 e3, PS)
- target mRNA inhibition (HepG2, 5 µM): 54%

Sequence: GTTTATTGGGCGATCCC (sugars e2 k2 d8 k2 e3, PS)
- target mRNA inhibition (HepG2, 4 µM): 54%
